From patent US20220387440A1, “FORMULATIONS FOR USE IN THE PREVENTION AND/OR TREATMENT OF PERIPHERAL NEUROPATHY AND ITS ASSOCIATED DISEASES” (priority 2019, published 2022)
“And” between values parts separate entries of the source, which are not always exact repeats. Equal values may be shown once. Read-outs that look alike come from different tables or passages of the source.

What was measured:
[1] = system: rat dorsal root ganglion neurons (DRG); experiment: Cell number by hoechst 33342 nucleic acid stain (HCS), glucose toxicity; settings: for Score of neuroprotection, HOECHST: glucose-treated DRGs
From the text: This dye allows a sensitive cell number determination by fluorescence microscopy.

[2] = system: rat dorsal root ganglion neurons (DRG); settings: for Score of neuroprotection, Extremity count / Score of neuroprotection, Total length: glucose-treated DRGs
Experimental: In vitro injury was induced in DRGs culture by glucose treatment (150 mM) for 48 hours. […] By using HCS technology, cell parameters associated with neurite outgrowth—an indication of pre-lethal cytotoxic effects—were measured at single cell level, which allows high-throughput screening.
(§1) Primary cultures of dorsal rat ganglion neurons were prepared from the dorsal ganglions of neonatal Sprague-Dawley rats at day 8. […] Cells were maintained in neurobasal medium supplemented with B-27 component for 8 days at 37° C. in a humidified 5% CO2 atmosphere.
Beta-Ill tubulin staining: Beta-Ill tubulin staining was determined by Immunohistochemistry (IHQ). Cells were washed with PBS (Sigma Aldrich # Cat.D8537) and fixed with methanol for 10 minutes. After the fixation step the samples were washed three times with PBS and permeabilized with PBS+0.3% triton for 10 minutes. The samples were then blocked with PBS+Bovine Serum Albumine (BSA) for 30 minutes and finally anti-beta tubulin Ill antibody (Abcam # Cat.ab7751) were added at 1/1000 in PBS+0.5% BSA for 60 minutes at room temperature. […] The samples were then washed three times and measured under automated fluorescent microscope. To investigate the role of neurite extension, two geometric patterns were mainly employed in this study: total neurite length (total length of the path from a neuron body), and number of extremities (number of terminating neurite segments per neuron).
In order to acquire enough cells for the analysis, nine fields per well were imaged. The 20× objective was used to collect images for the distinct fluorescence channels. Dyes were excited and their fluorescence was monitored at the excitation and emission wavelengths with appropriate filter settings. In the setting up of the procedure, exposure times were adjusted in order to avoid overlapping emission between different probes. The collected images were analyzed using a module that allows the simultaneous quantification of subcellular structures, which are stained by different molecular probes to measure the fluorescence intensity associated with predefined nuclear and cytoplasmic compartments.

[3] = system: rat dorsal root ganglion neurons (DRG); experiment: WST-8 assay of viable cells, glucose toxicity; settings: for Score of neuroprotection, WST8: glucose-treated DRGs
Experimental: as §1
2. WST-8 assay: For detection of viable cells, 10 μl of CCK-8 reagent (WST-8) were added to each well and the plate was incubated at 37° C. After 1 hour, absorbance was measured at 450 nm using the Synergy II microplate reader.

[4] = diluted with sodium chloride 0.9%; cited from earlier work
peripheral nerves = settings: injected into the spinal cord compartment of cerebral spinal fluid; cited from earlier work
eye = settings: higher concentrations, accidental use instead of Trypan Blue during cataract surgery; cited from earlier work
glucose-treated DRGs = experiment: Degree of neuroprotection, sum of scores of all HCS parameters; settings: for Total score of neuroprotection (sum of individual scores): glucose-treated DRGs; for Neuroprotection degree: prior to assault with 150 mM glucose
From the text: For all the studied parameters, a variation of at least 20% in fluorescence intensity or in the corresponding morphological parameter in relation to untreated cultures was considered. […] From this calculation, a neuroprotective scale was established: high (>6), moderate (4-5), low (1-3), and no neuroprotection (0).
In order to compare the degree of neuroprotection of the tested compound at different concentrations, different scores were created according to the level of the alteration (the group formation criterion is described in material and methods section) and then a value was assigned to each parameter. The sum of all the values for each parameter and concentration tested was calculated, and four distinct groups were created according to their level of neuroprotection.

[5] = Sprague-Dawley, rat, 48 h, 150 mM
[6] = MB 0.0005 uM (with glu 150 mM, 48 h)
[7] = MB 0.0005 uM (with glu 150 mM, 48 h), listed as MB
[8] = MB 0.005 uM (with glu 150 mM, 48 h)
[9] = MB 0.005 uM (with glu 150 mM, 48 h), listed as MB
[10] = MB 0.05 uM (with glu 150 mM, 48 h)
[11] = MB 0.05 uM (with glu 150 mM, 48 h), listed as MB
[12] = MB 0.5 uM (with glu 150 mM, 48 h)
[13] = MB 0.5 uM (with glu 150 mM, 48 h), listed as MB
[14] = MB 5 uM (with glu 150 mM, 48 h)
[15] = MB 5 uM (with glu 150 mM, 48 h), listed as MB
[16] = MB 50 uM (with glu 150 mM, 48 h)
[17] = MB 50 uM (with glu 150 mM, 48 h), listed as MB

O=C[C@H](O)[C@@H](O)[C@H](O)[C@H](O)CO [Glucose, glucose]
Cell viability by Hoechst (single replicates) ([1]; Glucose (Alone) 150 mM, 48 h): 125 and 104 and 81 | Cell viability by Hoechst, Mean % of control ([1]; Glucose (Alone) 150 mM, 48 h): 46.76 % of control | Cell viability by Hoechst, mean ([1]; Glucose (Alone) 150 mM, 48 h): 103.3 | mortality in neurons [1, 5]: 54% | Extremity count/neuron (single replicates) ([2]; Glucose (Alone) 150 mM, 48 h): 0.82 and 0.9862 and 0.7818 | Extremity count/neuron, Mean % of control ([2]; Glucose (Alone) 150 mM, 48 h): 69.57 % of control | Extremity count/neuron, mean ([2]; Glucose (Alone) 150 mM, 48 h): 0.8627 | Total length per neuron (single replicates) ([2]; Glucose (Alone) 150 mM, 48 h): 42.95 and 52.97 and 37.56 | Total length per neuron, Mean % of control ([2]; Glucose (Alone) 150 mM, 48 h): 62.89 % of control | Total length per neuron, mean ([2]; Glucose (Alone) 150 mM, 48 h): 44.49 | decrease in neurite extremity count compared to untreated cells [2, 5]: 31% | decrease in neurite total length compared to untreated cells [2, 5]: 38% | viability reduction in DRGs measured by WST8 ([3]; glucose 150 mM, 48 h): 22%

CN(C)c1ccc2nc3ccc(N(C)C)cc3[s+]c2c1 [methylene blue, 3,7-bis(dimethylamino) phenothiazin-5-ium chloride]
Score of neuroprotection, HOECHST ([1]; 0.0005 μM): 3 (variation 60-100%) | Score of neuroprotection, HOECHST ([1]; 0.005 μM): 3 (variation 60-100%) | Score of neuroprotection, HOECHST ([1]; 0.05 μM): 3 (variation 60-100%) | Score of neuroprotection, HOECHST ([1]; 0.5 μM): 3 (variation 60-100%) | Score of neuroprotection, HOECHST ([1]; 5 μM): 1 (variation 20-40%) | Score of neuroprotection, HOECHST ([1]; 50 μM): −1 (variation 20-40%) | Cell viability by Hoechst, Mean % of control [1, 6]: 100.3 % of control | Cell viability by Hoechst, mean [1, 6]: 221.7 | Cell viability by Hoechst (single replicates) [1, 7]: 187 and 236 and 242 | Cell viability by Hoechst, Mean % of control [1, 8]: 115.1 % of control | Cell viability by Hoechst, mean [1, 8]: 254.3 | Cell viability by Hoechst (single replicates) [1, 9]: 255 and 290 and 218 | Cell viability by Hoechst, Mean % of control [1, 10]: 115.2 % of control | Cell viability by Hoechst, mean [1, 10]: 254.7 | Cell viability by Hoechst (single replicates) [1, 11]: 270 and 253 and 241 | Cell viability by Hoechst, Mean % of control [1, 12]: 109.2 % of control | Cell viability by Hoechst, mean [1, 12]: 241.3 | Cell viability by Hoechst (single replicates) [1, 13]: 234 and 217 and 273 | Cell viability by Hoechst, Mean % of control [1, 14]: 64.56 % of control | Cell viability by Hoechst, mean [1, 14]: 142.7 | Cell viability by Hoechst (single replicates) [1, 15]: 168 and 103 and 157 | Cell viability by Hoechst, Mean % of control [1, 16]: 30.92 % of control | Cell viability by Hoechst, mean [1, 16]: 68.33 | Cell viability by Hoechst (single replicates) [1, 17]: 74 and 69 and 62 | prevention of glucose-induced mortality ([1]; all concentrations (0.0005-5 μM), dose dependent, except 50 μM, co-incubation with 150 mM glucose): could prevent glucose-induced mortality | Score of neuroprotection, Extremity count ([2]; 0.0005 μM): 0 (no neuroprotection or variation lower than 20%) | Score of neuroprotection, Total length ([2]; 0.0005 μM): 0 (no neuroprotection or variation lower than 20%) | Score of neuroprotection, Extremity count ([2]; 0.005 μM): 0 (no neuroprotection or variation lower than 20%) | Score of neuroprotection, Total length ([2]; 0.005 μM): 0 (no neuroprotection or variation lower than 20%) | re-establishment of neurite outgrowth affected by glucose ([2]; 0.05 μM with 150 mM glucose): could re-establish the affected neurite outgrowth | Score of neuroprotection, Extremity count ([2]; 0.05 μM): 1 (variation 20-40%) | Score of neuroprotection, Total length ([2]; 0.05 μM): 1 (variation 20-40%) | Score of neuroprotection, Extremity count ([2]; 0.5 μM): 0 (no neuroprotection or variation lower than 20%) | Score of neuroprotection, Total length ([2]; 0.5 μM): 0 (no neuroprotection or variation lower than 20%) | Score of neuroprotection, Extremity count ([2]; 5 μM): −1 (variation 20-40%) | Score of neuroprotection, Total length ([2]; 5 μM): 0 (no neuroprotection or variation lower than 20%) | Score of neuroprotection, Extremity count ([2]; 50 μM): −3 (variation 40-60%) | Score of neuroprotection, Total length ([2]; 50 μM): −1 (variation 20-40%) | Extremity count/neuron, Mean % of control [2, 6]: 77.9 % of control | Extremity count/neuron, mean [2, 6]: 0.966 | Total length per neuron, Mean % of control [2, 6]: 70.88 % of control | Total length per neuron, mean [2, 6]: 50.15 | Extremity count/neuron (single replicates) [2, 7]: 1.058 and 0.8613 and 0.9784 | Total length per neuron (single replicates) [2, 7]: 50.96 and 40.13 and 59.36 | Extremity count/neuron, Mean % of control [2, 8]: 82.24 % of control | Extremity count/neuron, mean [2, 8]: 1.02 | Total length per neuron, Mean % of control [2, 8]: 74.22 % of control | Total length per neuron, mean [2, 8]: 52.51 | Extremity count/neuron (single replicates) [2, 9]: 0.8645 and 1.19 and 1.005 | Total length per neuron (single replicates) [2, 9]: 45.83 and 61.19 and 50.5 | Extremity count/neuron, Mean % of control [2, 10]: 95.29 % of control | Extremity count/neuron, mean [2, 10]: 1.182 | Total length per neuron, Mean % of control [2, 10]: 86.27 % of control | Total length per neuron, mean [2, 10]: 61.03 | Extremity count/neuron (single replicates) [2, 11]: 1.345 and 1.059 and 1.141 | Total length per neuron (single replicates) [2, 11]: 62.91 and 50.39 and 69.8 | Extremity count/neuron, Mean % of control [2, 12]: 61.57 % of control | Extremity count/neuron, mean [2, 12]: 0.7634 | Total length per neuron, Mean % of control [2, 12]: 56.15 % of control | Total length per neuron, mean [2, 12]: 39.72 | Extremity count/neuron (single replicates) [2, 13]: 0.6567 and 0.8552 and 0.7784 | Total length per neuron (single replicates) [2, 13]: 37.34 and 47.77 and 34.07 | Extremity count/neuron, Mean % of control [2, 14]: 52.97 % of control | Extremity count/neuron, mean [2, 14]: 0.6568 | Total length per neuron, Mean % of control [2, 14]: 60.36 % of control | Total length per neuron, mean [2, 14]: 42.7 | Extremity count/neuron (single replicates) [2, 15]: 0.8559 and 0.5369 and 0.5777 | Total length per neuron (single replicates) [2, 15]: 53.61 and 42.2 and 32.3 | Extremity count/neuron, Mean % of control [2, 16]: 20.98 % of control | Extremity count/neuron, mean [2, 16]: 0.2601 | Total length per neuron, Mean % of control [2, 16]: 22.74 % of control | Total length per neuron, mean [2, 16]: 16.09 | Extremity count/neuron (single replicates) [2, 17]: 0.2833 and 0.2345 and 0.2625 | Total length per neuron (single replicates) [2, 17]: 18.18 and 12.64 and 17.45 | compatibility with saline [4]: precipitation has been reported | nerve toxicity after injection into cerebral spinal fluid (peripheral nerves): massive peripheral nerves damage and resultant total paraplegia | ocular toxicity (eye): irreversible blindness, corneal edema | Score of neuroprotection, WST8 ([3]; 0.0005 μM): 0 (no neuroprotection or variation lower than 20%) | Score of neuroprotection, WST8 ([3]; 0.005 μM): 0 (no neuroprotection or variation lower than 20%) | Score of neuroprotection, WST8 ([3]; 0.05 μM): 0 (no neuroprotection or variation lower than 20%) | Score of neuroprotection, WST8 ([3]; 0.5 μM): 0 (no neuroprotection or variation lower than 20%) | Score of neuroprotection, WST8 ([3]; 5 μM): 0 (no neuroprotection or variation lower than 20%) | viability (WST8) in addition to glucose ([3]; 50 μM with 150 mM glucose): decrease in viability | Score of neuroprotection, WST8 ([3]; 50 μM): −1 (variation 20-40%) | prevention of glucose induced viability decrease (WST8) ([3]; 0.0005-50 μM with 150 mM glucose): could not prevent glucose induced viability decrease | Total score of neuroprotection (sum of individual scores) (glucose-treated DRGs; 0.0005 μM): 3 | Neuroprotection degree (glucose-treated DRGs; 0.0005 μM): low (low (1-3)) | Total score of neuroprotection (sum of individual scores) (glucose-treated DRGs; 0.005 μM): 3 | Neuroprotection degree (glucose-treated DRGs; 0.005 μM): low (low (1-3)) | Total score of neuroprotection (sum of individual scores) (glucose-treated DRGs; 0.05 μM): 5 | Neuroprotection degree (glucose-treated DRGs; 0.05 μM): moderate (moderate (4-5)) | Total score of neuroprotection (sum of individual scores) (glucose-treated DRGs; 0.5 μM): 3 | Neuroprotection degree (glucose-treated DRGs; 0.5 μM): low (low (1-3)) | Total score of neuroprotection (sum of individual scores) (glucose-treated DRGs; 5 μM): 0 | Neuroprotection degree (glucose-treated DRGs; 5 μM): no (no neuroprotection (0)) | Total score of neuroprotection (sum of individual scores) (glucose-treated DRGs; 50 μM): −6 | neuroprotection against glucose-induced DRGs toxicity, all parameters (glucose-treated DRGs; concentrations from 0.0005 μM to 0.5 μM): some neuroprotection
